One test has as its target c-Met tyrosine kinase (Homo sapiens, UniProt P08581). The test is described as follows: c-Met kinase activity on molecular level (ELISA, Poly(Glu,Tyr)4:1 substrate). Format: biochemical. The settings on record: ATP 5 μM, 37° C., 1 h. The procedure: Poly(Glu, Tyr)4:1 as an enzyme substrate was diluted by potassium ion-free PBS (10 mM, sodium phosphate buffer, 150 mM NaCl, pH7.2-7.4) into a solution of 20 μg/ml. […] After the liquid in wells was removed, the plate was washed three time by T-PBS (PBS solution containing 0.1% Tween-20) at 200 μl/well, 5 min for each time. The ELISA plate was then dried in an oven at 37° C. for 1-2 h.
Each well was added with 50 μL of ATP solution diluted by reaction buffer (50 mM HEPES pH 7.4, 50 mM MgCl2, 0.5 mM MnCl2, 0.2 mM Na3VO4, 1 mM DTT) at a final concentration of 5 μM. Compound diluted by 1% DMSO into a suitable concentration was added at 10 μl/well and then c-Met tyrosine kinase protein diluted by 40 μl of reaction buffer was added. The plate was placed on a shaking table (100 rpm) at 37° C. and incubated for 1 h, and then washed three times by T-PBS. For each assay, triplicate wells without enzyme were used as blank control and wells having the corresponding DMSO concentration without compound were used as negative control. Primary antibody PY99 (p-Tyr (PY99), Cell Signaling Technology, 1:1000 diluted in 5 mg/mL BSA T-PBS) was added at 100 μl/well. The plate was then placed on a shaking table at 37° C. and incubated for 0.5 h, and washed by T-PBS. Secondary antibody horseradish peroxidase-conjugated goat anti-mouse IgG (1:2000 diluted in 5 mg/mL BSA T-PBS) was added at 100 μl/well. The plate was then placed on a shaking table at 37° C. for 0.5 h and washed three times by T-PBS. 2 mg/mL of OPD developer (diluted by a 0.1M citric acid-sodium citrate buffer (pH=5.4) containing 0.03% of H2O2) was added at 100 μl/well, and the plate was kept in dark at 25° C. for 1-10 min. OPD was ultrasonically dissolved and the developer solution was prepared just before use. 2 M of H2SO4 was added at 50 μl/well to stop the reaction. The plate was read using a wavelength regulated multi-well spectrophotometer (SPECTRA MAX 190) at 490 nm.
The inhibition rate was calculated according to the following equation:
Inhibition rate (%)=(1−(ODcompound−ODblank)/(ODnegative−ODblank))×100%
IC50 value was calculated through a four-parameter fit according to the inhibition curve.
On the technique in general: ELISA stands for enzyme-linked immunosorbent assay.

In another test the test system is NIH3T3/TPR-Met cells. The test is described as follows: Cell proliferation mediated by c-Met, SRB assay, NIH3T3/TPR-Met cells. The note with it: Mus musculus, NIH3T3, 72 h, read-out: inhibition rate (%) on proliferation of NIH3T3/TPR-Met cells. Format: cell-based. As to the method:
Three concentrations were set, and for each concentration, the test was carried out in triplicate wells. 72 h later, the culture medium was removed. The residue was fixed by precooled 10% TCA at 4° C. for 1 h, washed by distilled water for 5 times and dried at room temperature. […] The excess dye was removed by washed with 1% glacial acetic acid for 5 times and dried in air. At last, 150 μL of Tris-HCL solution (10 mM Tris, pH 10.0) was added to each well.
On the technique in general: The SRB assay estimates cell density from bound dye.

A further test has as its system NIH3T3 background cells. Description: Cell proliferation, SRB assay, NIH3T3 background cells as control. The format is cell-based. The settings on record: Mus musculus, NIH3T3, 72 h, read-out: inhibition rate (%) on proliferation of NIH3T3 background cells. As to the method:
NIH3T3/TPR-Met cells in the logarithmic growth phase and NIH3T3 background cells were seeded in a 96-well microcuture plate at 90111_, per well and cultivated overnight, followed by addition of 104 of the compound at different concentrations. Three concentrations were set, and for each concentration, the test was carried out in triplicate wells. 72 h later, the culture medium was removed. The residue was fixed by precooled 10% TCA at 4° C. for 1 h, washed by distilled water for 5 times and dried at room temperature. After that, 4 mg/mL of sulforodamine B (SRB) in 1% glacial acetic acid was added to each well (1004 per well) for staining at room temperature for 15 min. The excess dye was removed by washed with 1% glacial acetic acid for 5 times and dried in air. At last, 150 μL of Tris-HCL solution (10 mM Tris, pH 10.0) was added to each well. OD values were measured on a multi-well spectrophotometer at […].

For 12 compounds, IC50 and inhibition results are on record in patent publication US20130324542A1, “[1,2,4]TRIAZOLO[4,3-B][1,2,4]TRIAZINE COMPOUNDS, PREPARATION METHOD AND USE THEREOF” (SHANGHAI INSTITUTE OF MATERIA MEDICA, CHINESE ACADEMY OF …, priority 2010, published 2013).

For orientation: IC50 means the point on the concentration scale where inhibition reaches its midpoint. High values mean weaker potency, low ones greater potency.

Sequence of c-Met tyrosine kinase (P08581 25-1390): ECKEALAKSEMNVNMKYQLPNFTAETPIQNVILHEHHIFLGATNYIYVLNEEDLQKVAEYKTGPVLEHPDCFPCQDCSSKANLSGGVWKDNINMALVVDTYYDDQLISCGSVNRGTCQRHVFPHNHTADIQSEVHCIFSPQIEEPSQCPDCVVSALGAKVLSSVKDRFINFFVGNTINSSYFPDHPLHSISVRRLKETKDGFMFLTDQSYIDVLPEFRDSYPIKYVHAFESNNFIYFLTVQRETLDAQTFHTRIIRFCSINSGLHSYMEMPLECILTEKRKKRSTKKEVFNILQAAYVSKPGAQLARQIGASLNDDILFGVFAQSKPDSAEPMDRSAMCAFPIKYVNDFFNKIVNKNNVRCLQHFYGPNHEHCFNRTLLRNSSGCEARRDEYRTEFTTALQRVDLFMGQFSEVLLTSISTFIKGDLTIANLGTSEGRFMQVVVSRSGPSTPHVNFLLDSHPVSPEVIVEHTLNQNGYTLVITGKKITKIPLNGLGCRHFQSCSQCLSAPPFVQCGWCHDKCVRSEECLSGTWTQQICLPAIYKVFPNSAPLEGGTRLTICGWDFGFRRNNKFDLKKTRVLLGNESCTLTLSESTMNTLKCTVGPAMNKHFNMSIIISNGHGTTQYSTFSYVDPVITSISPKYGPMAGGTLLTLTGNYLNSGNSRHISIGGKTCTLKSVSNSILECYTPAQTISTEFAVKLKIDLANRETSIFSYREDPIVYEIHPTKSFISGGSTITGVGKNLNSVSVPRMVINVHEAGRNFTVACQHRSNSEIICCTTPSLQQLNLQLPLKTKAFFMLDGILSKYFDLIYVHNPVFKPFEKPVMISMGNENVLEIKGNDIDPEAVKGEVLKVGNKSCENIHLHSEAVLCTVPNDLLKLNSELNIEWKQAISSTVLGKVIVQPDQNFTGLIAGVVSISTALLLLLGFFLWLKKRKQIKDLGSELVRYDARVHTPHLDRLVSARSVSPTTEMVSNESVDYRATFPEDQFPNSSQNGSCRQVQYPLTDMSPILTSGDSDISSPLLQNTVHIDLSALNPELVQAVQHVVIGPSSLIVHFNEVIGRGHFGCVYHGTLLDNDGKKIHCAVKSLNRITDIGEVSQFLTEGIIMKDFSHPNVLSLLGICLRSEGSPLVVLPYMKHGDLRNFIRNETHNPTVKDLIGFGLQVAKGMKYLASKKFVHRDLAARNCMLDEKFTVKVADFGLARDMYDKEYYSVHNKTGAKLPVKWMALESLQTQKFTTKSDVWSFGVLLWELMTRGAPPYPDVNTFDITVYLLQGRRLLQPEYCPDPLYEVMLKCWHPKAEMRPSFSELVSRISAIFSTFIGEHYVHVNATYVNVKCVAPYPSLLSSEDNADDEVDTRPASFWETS

As for `COc1cc2nccc(OCc3nnc4ncc(-c5ccccc5)nn34)c2cc1OC` [II-17, 3-[(6,7-dimethoxy-4-quinolyl)oxymethyl]-6-phenyl-[1,2,4]triazolo[4,3-b][1,2,4]triazine], the half-maximal inhibitory concentration (IC50) on c-Met tyrosine kinase was determined as 2.9 nM. Moreover, the inhibition at 10 µM came out at 65.2% in the test on NIH3T3/TPR-Met cells and 1.2% in the test on NIH3T3 background cells.

In turn, `COC(=O)c1ccc(-c2cnc3nnc(COc4ccnc5cc(OC)c(OC)cc45)n3n2)cc1` [II-18, 3-[(6,7-dimethoxy-4-quinolyl)oxymethyl]-6-(4-methoxyformylphenyl)-[1,2,4]triazolo[4,3-b] [1,2,4]triazine] yielded a 50% inhibitory concentration (IC50) on c-Met tyrosine kinase of 3.7 nM. In the test with NIH3T3/TPR-Met cells, the inhibition at 1 µM is 5.6%, the inhibition at 10 µM was 22.9% and the inhibition at 50 µM turned out to be 82.6%. Besides, in the test with NIH3T3 background cells, the inhibition at 1 µM came to 29.6%, the inhibition at 10 µM is 37.3% and the inhibition at 50 µM worked out at 63.5%.

For the compound `COc1cc2nccc(OCc3nnc4ncc(-c5ccc(OCc6ccccc6)cc5)nn34)c2cc1OC` [II-19, 3-[(6,7-dimethoxy-4-quinolyl)oxymethyl]-6-(4-benzyloxyphenyl)-[1,2,4]triazolo[4,3-b][1,2,4] triazine], 0.3 nM corresponded to half-maximal inhibition against c-Met tyrosine kinase (IC50). Also, in the test with NIH3T3/TPR-Met cells, the inhibition at 1 µM was 6.55% and the inhibition at 50 µM worked out at 97%. For the same compound, in the test on NIH3T3 background cells, the inhibition at 1 µM came out at 24.9%, the inhibition at 10 µM was 31.1% and the inhibition at 50 µM came to 83.4%.

For the compound `COc1ccc2c(OCc3nnc4ncc(-c5ccc(Cl)c(Cl)c5)nn34)ccnc2c1` [II-20, 3-[(7-methoxy-4-quinolyl)oxymethyl]-6-(3,4-dichlorophenyl)-[1,2,4]triazolo[4,3-b][1,2,4] triazine], the midpoint of inhibition against c-Met tyrosine kinase, the IC50, lay at 0.7 nM. In addition, in the test with NIH3T3/TPR-Met cells, the inhibition at 1 µM amounted to 78.7%, the inhibition at 10 µM is 89.4% and the inhibition at 50 µM is 86.7%. Also, in the test on NIH3T3 background cells, the inhibition at 1 µM amounted to 10.4%, the inhibition at 10 µM was found to be 22.5% and the inhibition at 50 µM is 21.4%.

For the compound `Fc1ccc(-c2cnc3nnc(COc4ccnc5ccccc45)n3n2)cc1` [II-21, 3-(4-quinolyloymethyl)-6-(4-fluorophenyl)-[1,2,4]triazolo[4,3-b][1,2,4]triazine], on c-Met tyrosine kinase, it took 0.81 nM to reach half-maximal inhibition (IC50). Further, in the test on NIH3T3/TPR-Met cells, the inhibition at 1 µM stood at 24.6%, the inhibition at 10 µM came to 81.4% and the inhibition at 50 µM is 84.3%. Besides, in the test with NIH3T3 background cells, the inhibition at 1 µM is 28.9%, the inhibition at 10 µM is 53.9% and the inhibition at 50 µM came out at 57.5%.

With `c1ccc(-c2cnc3nnc(COc4ccnc5ccccc45)n3n2)cc1` [II-22, 3-(4-quinolyloxymethyl)-6-phenyl-[1,2,4] triazolo[4,3-b][1,2,4]triazine], the IC50 at c-Met tyrosine kinase came to 0.7 nM. For the same compound, in the test on NIH3T3/TPR-Met cells, the inhibition at 1 µM was 63.9%, the inhibition at 10 µM worked out at 81.7% and the inhibition at 50 µM was 78.8%. In the test with NIH3T3 background cells, the inhibition at 1 µM stood at 38.6%, the inhibition at 10 µM worked out at 53.8% and the inhibition at 50 µM is 48.1%.

For the compound `COc1ccc(-c2cnc3nnc(COc4ccnc5ccccc45)n3n2)cc1` [II-23, 3-(4-quinolyloxymethyl)-6-(4-methoxyphenyl)-[1,2,4]triazolo[4,3-b][1,2,4]triazine], the IC50 against c-Met tyrosine kinase is 0.88 nM. Further, in the test with NIH3T3/TPR-Met cells, the inhibition at 1 µM came out at 29%, the inhibition at 10 µM came to 83.2% and the inhibition at 50 µM was found to be 88.5%. In the test on NIH3T3 background cells, the inhibition at 1 µM came to 22.8%, the inhibition at 10 µM was 49.8% and the inhibition at 50 µM stood at 31.3%.

At c-Met tyrosine kinase, `Oc1ccc(-c2cnc3nnc(COc4ccnc5ccccc45)n3n2)cc1` [II-24, 3-(4-quinolyloxymethyl)-6-(4-hydroxyphenyl)-[1,2,4]triazolo[4,3-b][1,2,4]triazine] showed an IC50 of 0.78 nM. In addition, in the test with NIH3T3/TPR-Met cells, the inhibition at 1 µM is 5.3%, the inhibition at 10 µM was found to be 53.1% and the inhibition at 50 µM turned out to be 70.6%. For the same compound, in the test with NIH3T3 background cells, the inhibition at 1 µM came to 17.1%, the inhibition at 10 µM worked out at 25.1% and the inhibition at 50 µM worked out at 28.4%.

On c-Met tyrosine kinase, `COc1cccc(-c2cnc3nnc(COc4ccnc5ccccc45)n3n2)c1` [II-26, 3-(4-quinolyloxymethyl)-6-(3-methoxyphenyl)-[1,2,4]triazolo[4,3-b][1,2,4]triazine] registered a half-maximal inhibitory concentration (IC50) of 1 nM. Moreover, in the test with NIH3T3/TPR-Met cells, the inhibition at 1 µM turned out to be 20.9%, the inhibition at 10 µM amounted to 82.7% and the inhibition at 50 µM worked out at 83.9%. Besides, in the test on NIH3T3 background cells, the inhibition at 1 µM stood at 36.8%, the inhibition at 10 µM worked out at 58.7% and the inhibition at 50 µM was determined as 62.2%.

`Oc1cccc(-c2cnc3nnc(COc4ccnc5ccccc45)n3n2)c1` [II-27, 3-(4-quinolyloxymethyl)-6-(3-hydroxyphenyl)-[1,2,4]triazolo[4,3-b][1,2,4]triazine]: 0.88 nM corresponded to half-maximal inhibition on c-Met tyrosine kinase (IC50). Also, in the test on NIH3T3/TPR-Met cells, the inhibition at 1 µM stood at 9.2%, the inhibition at 10 µM came out at 72.6% and the inhibition at 50 µM turned out to be 80.7%. In the test on NIH3T3 background cells, the inhibition at 1 µM is 18.3%, the inhibition at 10 µM was determined as 37.7% and the inhibition at 50 µM was determined as 46%.

`COc1ccc2c(OCc3nnc4ncc(-c5cnn(C)c5)nn34)ccnc2c1` [II-29, 3-[(7-methoxy-4-quinolyl)oxymethyl]-6-[(1-methyl)-4-pyrazolo]-[1,2,4]triazolo[4,3-b][1,2,4] triazine] returned an IC50 against c-Met tyrosine kinase of 2.4 nM. In addition, in the test on NIH3T3/TPR-Met cells, the inhibition at 1 µM was 87.4%, the inhibition at 10 µM was found to be 88.2% and the inhibition at 50 µM stood at 91.9%. Also, in the test with NIH3T3 background cells, the inhibition at 1 µM was found to be 31.8%, the inhibition at 10 µM came to 32.9% and the inhibition at 50 µM was 50.9%.

Regarding `Cc1[nH]c(/C=C2\C(=O)Nc3ccc(S(=O)(=O)N(C)c4cccc(Cl)c4)cc32)c(C)c1C(=O)N1CCN(C)CC1` [SU11274, reference compound], the midpoint of inhibition at c-Met tyrosine kinase, the IC50, lay at 7.9 nM. Besides, in the test with NIH3T3/TPR-Met cells, the inhibition at 1 µM was 8.5%, the inhibition at 10 µM turned out to be 80.1% and the inhibition at 50 µM worked out at 88.7%. For the same compound, in the test with NIH3T3 background cells, the inhibition at 1 µM was determined as 19.9%, the inhibition at 10 µM was 44.2% and the inhibition at 50 µM is 70.6%.
